From patent publication US20220356174A1, “PYRIDIN-2-ONE COMPOUNDS USEFUL AS SMARCA2 ANTAGONISTS” (Epizyme, Inc., priority 2018, published 2022)
Read-outs that look alike come from different tables or passages of the source.

Experiments:
FL-SMARCA4 = FL-SMARCA4 (Homo sapiens, UniProt P51532); assay: SMARCA4 ATPase activity assay (ADP-Glo, chicken mononucleosome substrate)
Protocol: Substrates. Chicken erythrocyte mononucleosomes were prepared from fresh chicken blood collected into anticoagulant and filtered through cheesecloth. The filtered chicken blood was diluted in buffer A (10 mM Tris-HCl, pH 7.4, 10 mM NaCl, 3 mM MgCl2) and centrifuged at 500 g for 15 minutes to collect the erythrocytes. Erythrocyte nuclei were harvested by resuspending the pellets in buffer A containing 0.3% NP-40 detergent. The mixture was stirred with a magnetic bar for 10 mins and centrifuged at 4000 g for 10 minutes. Resuspension, stirring and centrifugation was repeated twice more before the final nuclei pellet was resuspended in buffer A+0.3% NP-40 and stored at −80° C. until purification. For nucleosome purification, nuclei aliquots were rapidly thawed and washed five times with buffer B (10 mM Tris-HCl, pH 7.4, 1 mM CaCl2), 1 mM PMSF) and collected by centrifugation at 2800 g for 10 minutes. Pellets were resuspended in buffer B and treated with 100 U/mL micrococcal nuclease for 40 minutes at 37° C. The reaction was terminated by the addition of 2 mM EDTA and was centrifuged at 2800 g for 10 minutes. The nuclei were then lysed by resuspending the pellet in 1 mM EDTA and 1 mM PMSF and passing the mixture through a 22G needle 4 to 5 times. The solution was then centrifuged at 15,000 g for 20 minutes and the supernatant was collected. The remaining pellet was lysed through the syringe twice more and the supernatants were pooled after centrifugation. The pooled supernatants were further purified by size exclusion chromatography (GE Sephacryl S300 HR 50/100) in buffer C (10 mM HEPES, pH 7.5, 10 mM KCl, 1 mM EDTA, 1 mM PMSF, 10% glycerol). Fractions were analyzed by agarose gel electrophoresis and SDS-PAGE and fractions containing mononucleosomes were pooled and stored at −80° C.
The SMARCA2 or SMARCA4 ATPase assays were identical. The SMARCA2 or SMARCA4 ATPase assays were performed in a buffer consisting of 20 mM Bicine (pH 7.5), 10 mM KCl, 1 mM MgCl2, 1 mM TCEP, 0.005% BSG, and 0.002% Tween 20, prepared on the day of use. Compounds in 100% DMSO were 3-fold serially diluted to produce a 10 point curve for IC50 determination and 0.2 uL were transferred into polypropylene 384-well V-bottom plates (Greiner) using an Echo liquid handler (Labcyte). DMSO (0.2 uL) was added to Columns 11, 12, 23, 24, rows A-H for the maximum signal control and 0.2 uL doxorubicin, a known DNA intercalator, was added to columns 11, 12, 23, 24, rows I-P for the minimum signal control. The SMARCA2 or SMARCA4 enzyme (10 uL) was added to the compounds and allowed to incubate with the compounds for 30 min at room temperature. The SMARCA2 or SMARCA4 ATPase assay was initiated by the addition of 10 uL chicken mononucleosome and ATP mixture (final volume=20 uL). The final concentrations of the assay components were as follows: SMARCA2 or SMARCA4 was 5 nM, ATP was 250 uM, chicken mononucleosome was 10 nM, doxorubicin in the minimum signal control wells was 50 uM, and the DMSO concentration was 1%. 5 uL of the reaction mixture was transferred from the 384-well polypropylene plate to a white opaque polystyrene 384-well plate. At 60 minutes, the assays were terminated by the addition of 5 uL ADP-Glo™ Reagent (Promega). After 40 minutes, the luciferase reaction was initiated by the addition of 10 uL of Kinase Detection Reagent (Promega) and incubated for 1 hour. The ADP product generated from the SMARCA2 or SMARCA4 ATPase reaction was determined via luminescence intensity.

H358 cells = assay: High-throughput proliferation (HTP) assay for H358 cells (CellTiter-Glo, 7 days); format: cell-based; conditions: Homo sapiens, NCI-H358, 168 h, read-out: H358 SMARCA2 IC50
Summary of the method: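 Cells were plated at 1,000 cells/well in RPMI 1640 + 10% HI-FBS + 1% pen/strep on pre-dispensed compound and incubated 7 days at 37 °C, 5% CO2. Viability was read as ATP luminescence with CellTiter-Glo after 30 min at RT. DMSO served as 0% and 10 µM doxorubicin as 100% inhibition for EC50/IC50.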

[1] = target: T1, FL-SMARCA2 (full-length human SMARCA2 isoform 1) (Homo sapiens, UniProt P51531); assay: SMARCA2 ATPase activity assay (ADP-Glo, chicken mononucleosome substrate); format: biochemical; conditions: ATPase assay, enzyme 5 nM, ATP 250 uM, chicken mononucleosome 10 nM, 30 min preincubation
T1 construct: FLAG tag (YKDDDDK) (C); made in house; host or cells: Sf21 insect cells (baculovirus, pFastBacI)
T1 sequence (P51531 with tags, fused parts or gaps): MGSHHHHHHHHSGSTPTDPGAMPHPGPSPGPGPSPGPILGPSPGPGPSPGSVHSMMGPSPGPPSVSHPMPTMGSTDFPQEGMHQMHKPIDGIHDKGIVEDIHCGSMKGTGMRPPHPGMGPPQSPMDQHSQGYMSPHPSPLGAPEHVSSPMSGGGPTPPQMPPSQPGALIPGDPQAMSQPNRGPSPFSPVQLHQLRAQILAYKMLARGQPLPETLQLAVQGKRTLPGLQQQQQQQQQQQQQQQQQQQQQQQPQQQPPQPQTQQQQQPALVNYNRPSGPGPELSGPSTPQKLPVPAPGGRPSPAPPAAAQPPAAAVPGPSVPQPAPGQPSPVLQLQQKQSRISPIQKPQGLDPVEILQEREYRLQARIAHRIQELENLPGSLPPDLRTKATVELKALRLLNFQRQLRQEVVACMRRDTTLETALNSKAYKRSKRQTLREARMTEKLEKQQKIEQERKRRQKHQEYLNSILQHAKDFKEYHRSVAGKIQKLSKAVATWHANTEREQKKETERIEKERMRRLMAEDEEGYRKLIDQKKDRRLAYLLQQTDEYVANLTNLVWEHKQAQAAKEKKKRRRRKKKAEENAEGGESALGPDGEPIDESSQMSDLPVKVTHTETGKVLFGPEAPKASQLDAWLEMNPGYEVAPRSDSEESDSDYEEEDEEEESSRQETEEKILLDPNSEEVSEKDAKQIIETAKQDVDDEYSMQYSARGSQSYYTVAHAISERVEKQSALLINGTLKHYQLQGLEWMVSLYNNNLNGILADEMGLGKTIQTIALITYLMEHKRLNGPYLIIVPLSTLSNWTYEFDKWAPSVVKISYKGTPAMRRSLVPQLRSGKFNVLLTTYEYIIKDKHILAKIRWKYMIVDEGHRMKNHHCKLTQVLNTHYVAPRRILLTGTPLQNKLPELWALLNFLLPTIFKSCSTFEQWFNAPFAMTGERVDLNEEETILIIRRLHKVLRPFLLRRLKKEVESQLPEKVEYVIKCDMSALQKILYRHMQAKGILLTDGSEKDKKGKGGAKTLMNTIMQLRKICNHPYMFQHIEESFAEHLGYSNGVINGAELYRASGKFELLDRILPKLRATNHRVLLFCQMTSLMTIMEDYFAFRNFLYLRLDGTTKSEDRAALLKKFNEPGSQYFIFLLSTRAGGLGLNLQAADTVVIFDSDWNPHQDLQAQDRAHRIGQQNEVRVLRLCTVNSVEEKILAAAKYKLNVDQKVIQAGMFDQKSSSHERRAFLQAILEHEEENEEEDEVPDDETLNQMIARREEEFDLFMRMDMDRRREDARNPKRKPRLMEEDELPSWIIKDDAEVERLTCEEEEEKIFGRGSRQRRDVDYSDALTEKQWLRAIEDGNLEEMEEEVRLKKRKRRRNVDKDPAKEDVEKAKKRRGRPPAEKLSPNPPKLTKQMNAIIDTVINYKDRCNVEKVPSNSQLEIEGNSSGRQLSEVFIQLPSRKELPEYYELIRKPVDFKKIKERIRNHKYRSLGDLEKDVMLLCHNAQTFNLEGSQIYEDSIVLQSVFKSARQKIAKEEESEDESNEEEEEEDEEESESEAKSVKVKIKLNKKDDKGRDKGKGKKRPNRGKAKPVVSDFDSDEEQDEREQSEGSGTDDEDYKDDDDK

A549 cells = assay: High-throughput proliferation (HTP) assay for A549 cells (CellTiter-Glo, 7 days); format: cell-based; conditions: Homo sapiens, 168 h, read-out: A549 SMARCA2 IC50
Summary of the method: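 A549 cells plated at 62.5 cells/well in F12K + 10% HI-FBS onto pre-dispensed compound, grown 7 days at 37° C., 5% CO2. Viability by CellTiter-Glo luminescence after 30 min at RT; EC50/IC50 from DMSO (0%) and 10 μM Doxorubicin (100%) inhibition controls.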

[2] = Table 3d.1, read-out: FL-SMARCA2 IC>50
[3] = FL-SMARCA4 IC>50, Table 3c.2, ATPase assay, enzyme 5 nM, ATP 250 uM, chicken mononucleosome 10 nM, 30 min preincubation

Sequence of FL-SMARCA4 (P51532 whole entry): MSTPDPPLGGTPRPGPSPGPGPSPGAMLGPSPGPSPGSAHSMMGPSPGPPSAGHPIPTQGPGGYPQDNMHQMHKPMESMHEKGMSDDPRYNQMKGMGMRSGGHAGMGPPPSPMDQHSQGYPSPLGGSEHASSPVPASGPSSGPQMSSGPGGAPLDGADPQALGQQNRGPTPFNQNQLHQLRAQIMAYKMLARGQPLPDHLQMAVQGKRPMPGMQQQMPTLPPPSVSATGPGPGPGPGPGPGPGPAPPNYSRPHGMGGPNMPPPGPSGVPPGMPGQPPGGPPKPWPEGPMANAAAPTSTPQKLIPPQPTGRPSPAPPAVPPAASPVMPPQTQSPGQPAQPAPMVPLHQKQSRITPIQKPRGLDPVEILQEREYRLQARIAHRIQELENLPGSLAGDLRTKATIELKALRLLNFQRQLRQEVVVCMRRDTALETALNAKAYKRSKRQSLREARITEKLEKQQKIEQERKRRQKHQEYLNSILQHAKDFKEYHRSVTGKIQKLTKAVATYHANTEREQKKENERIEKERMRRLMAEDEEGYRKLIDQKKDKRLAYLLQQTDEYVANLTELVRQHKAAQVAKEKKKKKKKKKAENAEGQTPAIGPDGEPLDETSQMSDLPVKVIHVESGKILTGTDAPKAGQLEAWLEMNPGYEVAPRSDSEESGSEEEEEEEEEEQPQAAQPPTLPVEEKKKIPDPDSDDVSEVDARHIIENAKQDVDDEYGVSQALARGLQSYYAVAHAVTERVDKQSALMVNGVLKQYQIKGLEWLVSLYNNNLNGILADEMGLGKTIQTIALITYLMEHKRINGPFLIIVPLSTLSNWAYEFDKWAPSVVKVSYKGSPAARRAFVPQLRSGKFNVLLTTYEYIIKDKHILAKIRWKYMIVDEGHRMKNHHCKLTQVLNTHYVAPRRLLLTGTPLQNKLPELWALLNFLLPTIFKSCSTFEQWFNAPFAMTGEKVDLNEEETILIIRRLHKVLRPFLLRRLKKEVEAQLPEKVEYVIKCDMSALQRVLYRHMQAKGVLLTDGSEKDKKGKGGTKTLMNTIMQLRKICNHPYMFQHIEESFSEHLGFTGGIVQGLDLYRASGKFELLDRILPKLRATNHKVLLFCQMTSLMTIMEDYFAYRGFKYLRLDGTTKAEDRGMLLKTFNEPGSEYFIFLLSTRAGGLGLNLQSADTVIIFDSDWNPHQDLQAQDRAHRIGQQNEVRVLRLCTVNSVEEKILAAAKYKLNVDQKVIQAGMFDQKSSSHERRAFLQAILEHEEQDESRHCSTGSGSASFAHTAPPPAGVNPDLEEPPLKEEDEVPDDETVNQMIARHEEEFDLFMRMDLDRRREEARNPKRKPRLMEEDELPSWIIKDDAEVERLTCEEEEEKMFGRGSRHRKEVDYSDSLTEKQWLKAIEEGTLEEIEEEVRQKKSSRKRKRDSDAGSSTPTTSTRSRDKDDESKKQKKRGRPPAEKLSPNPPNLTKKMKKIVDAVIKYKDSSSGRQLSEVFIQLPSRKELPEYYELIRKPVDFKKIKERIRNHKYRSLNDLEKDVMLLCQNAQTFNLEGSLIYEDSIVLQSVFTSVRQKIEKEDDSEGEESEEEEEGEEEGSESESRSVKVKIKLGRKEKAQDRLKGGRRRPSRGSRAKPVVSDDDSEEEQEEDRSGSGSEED

SMILES	IC50 (FL-SMARCA4; FL-SMARCA4 IC50) [nM]	IC50 (H358 cells) [nM]	IC50 [1, 2] [nM]	IC50 (A549 cells) [nM]	IC50 (FL-SMARCA4; [3]) [nM]	IC50 ([1]; Table 3c.1) [nM]	IC50 (FL-SMARCA4; FL-SMARCA4 IC50, Table 3.2, ATPase assay, enzyme 5 nM, ATP 250 uM, chicken mononucleosome 10 nM, 30 min preincubation) [nM]	IC50 ([1]; Table 3.1) [nM]
Cc1sc(C(=O)Nc2cc(F)c(=O)n(CC(F)F)c2)cc1C#N [Compound 81d]	241	> 10000	67	2370				
O=C(Nc1cc(F)c(=O)n(CC(F)F)c1)c1cc(C#Cc2cocn2)c(Cl)s1 [Compound 136c]		> 10000		734	117	26.3		
O=C(Nc1cc(F)c(=O)n(CC(F)F)c1)c1cc(C#Cc2cnn(CCO)c2)c(Cl)s1 [Compound 122c]		> 10000		4600	130	52		
O=C1Cc2ccc(C#Cc3cc(C(=O)Nc4cc(F)c(=O)n(CC(F)F)c4)sc3Cl)cc2N1 [Compound 140c]		> 10000		> 10000	63.3	34		
CNC(=O)c1cncc(C#Cc2cc(C(=O)Nc3cc(F)c(=O)n(CC(F)F)c3)sc2Cl)c1 [Compound 129c]		> 10000		> 10000	143	51.3		
CNC(=O)c1cccc(C#Cc2cc(C(=O)Nc3cc(F)c(=O)n(CC(F)F)c3)sc2Cl)c1 [Compound 86c]		> 10000		1730	45.1	17.2		
N#Cc1cc(C(=O)Nc2cc(C(N)=O)c(=O)n(CC(F)F)c2)sc1C(F)(F)F [Compound 137d]	> 50000	> 10000	> 50000	> 10000				
N#Cc1sc(C(=O)Nc2cc(F)c(=O)n(CC(F)F)c2)cc1C#CC1CCOCC1 [Compound 102d]	46.4	> 10000	19.4	1050				
CC(N)C#Cc1cc(C(=O)Nc2cc(F)c(=O)n(CC(F)F)c2)sc1Cl (stereo not drawn) [Compound 138d]	4610	> 10000	1680	> 10000				
N#Cc1sc(C(=O)Nc2cc(F)c(=O)n(CC(F)F)c2)cc1C#Cc1ccncc1 [Compound 134c]		3890		909	12.8	8.12		
O=C(Nc1ccc(=O)n(CC(F)F)c1)c1cc(F)c(Cl)s1 [Compound 45c]		> 10000		4260	232	98.1		
O=C(Nc1cc(F)c(=O)n(CC(F)F)c1)c1cc(C#Cc2c[nH]cn2)c(Cl)s1 [Compound 113c]		> 10000		4030	111	34.5		
O=C(Nc1cc(F)c(=O)n(CC(F)F)c1)c1cc(C#Cc2ccc3nccn3c2)c(Cl)s1 [Compound 115d]	99.3	> 10000	35.8	2080				
CC1(C)CC(C#Cc2cc(C(=O)Nc3cc(F)c(=O)n(CC(F)F)c3)sc2Cl)CC(C)(C)N1 [Compound 121d]	17300	7380	16800	5020				
Cn1cc(C#Cc2cc(C(=O)Nc3cc(F)c(=O)n(CC(F)F)c3)sc2Cl)ccc1=O [Compound 60d]	36.3	> 10000	18	3650				
O=C(Nc1cc(F)c(=O)n(CC(F)F)c1)c1sc(C(F)(F)F)cc1Cl [Compound 48c]		> 10000		> 10000	> 50000	25300		
O=C(Nc1cc(F)c(=O)n(CC(F)F)c1)c1cc(C#CC(=O)N2CCCC2)c(Cl)s1 [Compound 70d]	4750	9840	1690	1960				
O=C(Nc1cc(F)c(=O)n(CC(F)F)c1)c1cnc(C(F)(F)F)s1 [Compound 297, N-(1-(2,2-difluoroethyl)-5-fluoro-6-oxo-1,6-dihydropyridin-3-yl)-2-(trifluoromethyl)thiazole-5-carboxamide]		> 10000		2090			448	75.7
O=C(Nc1cc(F)c(=O)n(CC(F)F)c1)c1cc(C(F)(F)F)c(Cl)s1 [Compound 37c]		> 10000		9050	2490	482		
O=C(Nc1cc(F)c(=O)n(CC(F)F)c1)c1cc(C#Cc2ccc3nncn3c2)c(Cl)s1 [Compound 91d]	69.8	> 10000	22.9	> 10000				
Cn1cc(C#Cc2cc(C(=O)Nc3cc(F)c(=O)n(CC(F)F)c3)sc2Cl)cn1 [Compound 5c]		> 10000		1160	75.9	28.5		

SMILES	IC50 (FL-SMARCA4; FL-SMARCA4 IC50) [nM]	IC50 (H358 cells) [nM]	IC50 [1, 2] [nM]	IC50 (A549 cells) [nM]	IC50 (FL-SMARCA4; [3]) [nM]	IC50 ([1]; Table 3c.1) [nM]	IC50 (FL-SMARCA4; FL-SMARCA4 IC50, Table 3.2, ATPase assay, enzyme 5 nM, ATP 250 uM, chicken mononucleosome 10 nM, 30 min preincubation) [nM]	IC50 ([1]; Table 3.1) [nM]
O=C(Nc1cc(F)c(=O)n(CC(F)F)c1)c1cc(C#CC2COC2)c(C(F)F)s1 [Compound 80c]		> 10000		3980	494	161		
Cc1cc(NC(=O)c2cc(C#N)c(C(F)(F)F)s2)cn(CC(F)F)c1=O [Compound 75d]	11300	> 10000	948	> 10000				
O=C(Nc1cc(F)c(=O)n(CC(F)F)c1)c1cc(C#CCn2ccnc2)c(Cl)s1 [Compound 116d]	673	> 10000	252	8920				
Cc1nsc(C#Cc2cc(C(=O)Nc3cc(F)c(=O)n(CC(F)F)c3)sc2Cl)n1 [Compound 139c]		550		639	186	59.9		
N#Cc1sc(C(=O)Nc2cc(F)c(=O)n(CC(F)F)c2)cc1C#C[C@H]1C[C@H](O)C1 [Compound 104d]	82	> 10000	30	4370				
CN(C)C(=O)c1cccc(C#Cc2cc(C(=O)Nc3cc(F)c(=O)n(CC(F)F)c3)sc2Cl)c1 [Compound 74c]		> 10000		3930	245	67.5		
O=C(Nc1cc(F)c(=O)n(CC(F)F)c1)c1cc(C#C[C@H]2CCOC2)c(Cl)s1 [Compound 78c]		> 10000		1570	256	98.3		
N#Cc1cc(C#Cc2cc(C(=O)Nc3cc(F)c(=O)n(CC(F)F)c3)sc2Cl)ccn1 [Compound 151c]		4860		889	111	29.6		
Cc1cc(C#Cc2cc(C(=O)Nc3cc(F)c(=O)n(CC(F)F)c3)sc2Cl)on1 [Compound 63c]		> 10000		2290	100	33.3		
O=C(Nc1cc(F)c(=O)n(CC(F)F)c1)c1cc(C#CC(F)(F)F)c(Cl)s1 [Compound 74d]	1010	2440	462	1650				
N#Cc1sc(C(=O)Nc2cc(F)c(=O)n(CC(F)F)c2)cc1C#C[C@H]1C[C@@H](O)C1 [Compound 105d]	90.6	> 10000	31.4	4300				
CN1CC(C#Cc2cc(C(=O)Nc3cc(F)c(=O)n(CC(F)F)c3)sc2Cl)CCC1=O (stereo not drawn) [Compound 118d]	544	> 10000	245	7180				
CC(N)C#Cc1sc(C(=O)Nc2cc(F)c(=O)n(CC(F)F)c2)cc1Cl (stereo not drawn) [Compound 131d]	> 50000	> 10000	> 50000	> 10000				
O=C(Nc1cc(F)c(=O)n(CC(F)F)c1)c1cc(C#Cc2ccn(-c3ccccn3)c(=O)c2)c(Cl)s1 [Compound 97d]	3380	> 10000	2700	> 10000				
O=C1Cc2c(C#Cc3cc(C(=O)Nc4cc(F)c(=O)n(CC(F)F)c4)sc3Cl)cccc2N1 [Compound 142c]		4650		3210	119	49.9		
C[C@]1(C#Cc2cc(C(=O)Nc3cc(F)c(=O)n(CC(F)F)c3)sc2Cl)C[C@@H](O)C1 [Compound 136d]	85.2	> 10000	41.9	2220				
CN(C)Cc1ncc(C#Cc2cc(C(=O)Nc3cc(F)c(=O)n(CC(F)F)c3)sc2Cl)n1C [Compound 148c]		> 10000		4250	432	146		
CN(C)Cc1cccc(C#Cc2cc(C(=O)Nc3cc(F)c(=O)n(CC(F)F)c3)sc2Cl)c1 [Compound 128c]		3890		5130	823	211		
O=C1C[C@H](C#Cc2cc(C(=O)Nc3cc(F)c(=O)n(CC(F)F)c3)sc2Cl)CCN1 [Compound 63d]	518	> 10000	165	> 10000				
O=C(Nc1cc(F)c(=O)n(CC(F)F)c1)c1cc(C#Cc2cccnn2)c(Cl)s1 [Compound 55c]		> 10000		3780	269	77.8		
O=C(Nc1cc(F)c(=O)n(CC(F)F)c1)c1cc(-c2ccco2)c(Cl)s1 [Compound 112d]	2140	> 10000	345	9960				
